GI50 and TGI data for six compounds are collected here from PubChem BioAssay (NCI).

Test systems include U251 CNS; UACC-257 melanoma; MOLT-4 leukemia; SK-OV-3 ovarian; UO-31 renal; SNB-75 CNS; OVCAR-3 ovarian; SF-295 CNS; IGROV1 ovarian; HT29 colon.
Holding throughout (assay): DTP human tumour cell line panel, 48 h

≈ marks a conversion by molar mass, not a printed value.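 A five-concentration, 48-hour dose response in 96-well plates underlies each endpoint, interpolated linearly between surrounding concentrations. At the GI50, growth is halved. Definition used: TGI = concentration required for complete inhibition of growth.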

Broadly, the GI50 is the concentration that inhibits growth by half. Broadly, the TGI is the concentration at which net growth stops. As to `CC(=O)c1c(C)nc(SSc2nc(C)c(C(C)=O)c(-c3ccc(Cl)cc3)c2C#N)c(C#N)c1-c1ccc(Cl)cc1`, the GI50 in the assay with U251 CNS was 53.6 µg/mL (≈ 88.8 µM); with UACC-257 melanoma, greater than 150 µg/mL; with MOLT-4 leukemia it was 134 µg/mL; in the assay with SK-OV-3 ovarian it was 29.3 µg/mL (≈ 48.6 µM); in the assay with UO-31 renal it was 82 µg/mL (≈ 136 µM); with SNB-75 CNS, 23.3 µg/mL (≈ 38.7 µM). Further, the GI50 with OVCAR-3 ovarian was 59.9 µg/mL (≈ 99.2 µM); in the assay on SF-295 CNS, 50.2 µg/mL (≈ 83.1 µM); with IGROV1 ovarian, 88.1 µg/mL (≈ 146 µM); with HT29 colon, greater than 150 µg/mL. The TGI was greater than 150 µg/mL with U251 CNS; greater than 150 µg/mL in the assay on UACC-257 melanoma; greater than 150 µg/mL with MOLT-4 leukemia; greater than 150 µg/mL with SK-OV-3 ovarian; greater than 150 µg/mL with UO-31 renal; 80.3 µg/mL with SNB-75 CNS. In addition, the TGI in the assay with OVCAR-3 ovarian, in the assay on SF-295 CNS, with IGROV1 ovarian and in the assay on HT29 colon was greater than 150 µg/mL throughout.
Turning to `O=C(N/N=C/c1cc(Cl)cc(Cl)c1[O-])c1ccccc1O.O=C(N/N=C/c1cc(Cl)cc(Cl)c1[O-])c1ccccc1O.[Co+2]`, the TGI in the assay with U251 CNS turned out to be 3.73 µM; with UACC-257 melanoma, 14.6 µM; in the assay with MOLT-4 leukemia, 15.7 µM; in the assay with SK-OV-3 ovarian it was 6.45 µM; with UO-31 renal it was 6.72 µM; in the assay on SNB-75 CNS, 18.9 µM. The TGI with OVCAR-3 ovarian came to 0.969 µM; with SF-295 CNS it was 12.9 µM; in the assay on IGROV1 ovarian, 6.97 µM; in the assay with HT29 colon, 17.4 µM. For the same compound, in the assay with MOLT-4 leukemia, the GI50 was 0.23 µM.
Turning to `CC(=O)Nc1ccc(C(=O)NN2C(=O)C(Cl)/C2=C/c2ccco2)cc1` (stereo unspecified), the TGI with U251 CNS, with UACC-257 melanoma, with MOLT-4 leukemia, in the assay with SK-OV-3 ovarian, in the assay with UO-31 renal and in the assay on SNB-75 CNS was greater than 100 µM each time. In addition, the TGI in the assay on OVCAR-3 ovarian, in the assay on SF-295 CNS, in the assay with IGROV1 ovarian and with HT29 colon was greater than 100 µM throughout.
In the case of `CC(=O)OCC1OC(n2cc(F)c(=O)[nH]c2=O)C(NC(=O)OCc2ccccc2)C(OC(C)=O)C1OC(C)=O` (stereo unspecified), the TGI in the assay on U251 CNS, with UACC-257 melanoma, in the assay with MOLT-4 leukemia, in the assay with SK-OV-3 ovarian, in the assay on UO-31 renal and in the assay with SNB-75 CNS was greater than 100 µM in each case. Besides, the TGI with OVCAR-3 ovarian, in the assay on SF-295 CNS, with IGROV1 ovarian and in the assay with HT29 colon was greater than 100 µM in each case.
For the compound `CCP(=O)(CC)C(Cl)Cl`, the TGI in the assay on U251 CNS, in the assay on UACC-257 melanoma, in the assay with MOLT-4 leukemia, with SK-OV-3 ovarian, in the assay with UO-31 renal and with SNB-75 CNS was greater than 100 µM each time. Besides, the TGI with OVCAR-3 ovarian, in the assay on SF-295 CNS, in the assay on IGROV1 ovarian and in the assay with HT29 colon was greater than 100 µM throughout.
Regarding `Nc1[nH]nc(Nc2ccc(Cl)cc2)c1P(=O)(c1ccccc1)c1ccccc1`, the TGI in the assay on U251 CNS is greater than 100 µM; in the assay with UACC-257 melanoma, greater than 100 µM; in the assay on MOLT-4 leukemia, greater than 100 µM; with SK-OV-3 ovarian, greater than 100 µM; in the assay with UO-31 renal it was greater than 100 µM; in the assay on SNB-75 CNS, 51.8 µM. In addition, the TGI with OVCAR-3 ovarian turned out to be 41.5 µM; in the assay with SF-295 CNS it was 44.5 µM; in the assay on IGROV1 ovarian it was 55.2 µM; with HT29 colon it was 65.2 µM.
